Measurements as given in ChEMBL document CHEMBL3046093, “Effect of doses of fungicides and plant resistance activators on the control of Rhizoctonia foliar blight of soybean, and on Rhizoctonia solani AG1-IA in vitro development” (Crop Prot, 2006).
≈ marks a conversion by molar mass, not a printed value. Calls of active or inactive are those of the source. The rule behind the calls is not given here.

Columns and labels:
Rhizoctonia solani [1] = assay: Fungicidal activity against Rhizoctonia solani AG-1 IA assessed as mycelial radial growth at 10 mg/l (reference value: 40 mm); format: functional
Rhizoctonia solani [2] = assay: Fungicidal activity against Rhizoctonia solani AG-1 IA assessed as inhibition of mycelial radial growth; format: functional, organism-based
Rhizoctonia solani [3] = assay: Fungicidal activity against Rhizoctonia solani AG-1 IA assessed as mycelial radial growth at 100 mg/l (reference value: 40 mm); format: functional
Rhizoctonia solani [4] = assay: Fungicidal activity against Rhizoctonia solani AG-1 IA assessed as mycelial radial growth at 1 mg/l (reference value: 40 mm); format: functional
Rhizoctonia solani [5] = assay: Fungicidal activity against Rhizoctonia solani AG-1 IA assessed as mycelial radial growth at 0.1 mg/l (reference value: 40 mm); format: functional
Rhizoctonia solani [6] = assay: Curative effect against Rhizoctonia solani AG-1 IA infected soybean plant at 100 g a.i/ha applied as spray at V5 to V6 growth stage post inoculation measured after 5 to 10 days under greenhouse condition relative to control; format: functional, organism-based
Rhizoctonia solani [7] = assay: Protective effect against Rhizoctonia solani AG-1 IA infected soybean plant at 100 g a.i/ha applied as spray at V5 to V6 growth stage prior to inoculation measured after 5 to 10 days under greenhouse condition relative to control; format: functional, organism-based
Glycine max [8] = assay: Phytotoxicity in Glycine max (soybean) plant assessed as dwarfing at 200 g a.i/ha; format: organism-based; conditions: in vivo
Glycine max [9] = assay: Phytotoxicity in Glycine max (soybean) plant assessed as leaf burning at 200 g a.i/ha; format: organism-based; conditions: in vivo
Rhizoctonia solani [10] = assay: Antifungal activity against Rhizoctonia solani AG-1 IA assessed as mycelial growth at 0.1 mg/l (reference value: 40 mm); format: functional
Rhizoctonia solani [11] = assay: Antifungal activity against Rhizoctonia solani AG-1 IA assessed as inhibition of mycelial growth at < 10 mg/l relative to control; format: functional, organism-based
Rhizoctonia solani [12] = assay: Antifungal activity against Rhizoctonia solani AG-1 IA assessed as mycelial growth at 1 mg/l (reference value: 40 mm); format: functional
Rhizoctonia solani [13] = assay: Curative effect against Rhizoctonia solani AG-1 IA infected soybean plant at 50 g a.i/ha applied as spray at V5 to V6 growth stage post inoculation measured after 5 to 10 days under greenhouse condition relative to control; format: functional, organism-based
Rhizoctonia solani [14] = assay: Protective effect against Rhizoctonia solani AG-1 IA infected soybean plant at 50 g a.i/ha applied as spray at V5 to V6 growth stage prior to inoculation measured after 5 to 10 days under greenhouse condition relative to control; format: functional, organism-based
Rhizoctonia solani [15] = assay: Protective effect against Rhizoctonia solani AG-1 IA infected soybean plant at 750 g a.i/ha applied as spray at V5 to V6 growth stage prior to inoculation measured after 5 to 10 days under greenhouse condition relative to control; format: functional, organism-based
Glycine max [16] = assay: Induction of systemic acquired resistance in Glycine max (soybean) plant infected with Rhizoctonia solani AG-1 IA assessed as reduction in disease severity at 12.5 mg a.i/l applied as spray on day 10 prior to inoculation measured after 5 days relative to control; format: functional; design: scale not given: the % may be the effect or the level left
Rhizoctonia solani [17] = assay: Antifungal activity against Rhizoctonia solani AG-1 IA assessed as reduction of mycelial growth at 100 mg/l relative to control; format: functional; design: scale not given: the % may be the effect or the level left
Glycine max [18] = assay: Induction of systemic acquired resistance in Glycine max (soybean) plant infected with Rhizoctonia solani AG-1 IA assessed as reduction in disease severity at 25 mg a.i/l applied as spray on day 5 prior to inoculation measured after 10 days relative to control; format: functional, organism-based
Glycine max [19] = assay: Induction of systemic acquired resistance in Glycine max (soybean) plant infected with Rhizoctonia solani AG-1 IA assessed as reduction in disease severity at 12.5 mg a.i/l applied as spray on day 10 prior to inoculation measured after 10 days relative to control; format: functional; design: scale not given: the % may be the effect or the level left
Rhizoctonia solani [20] = assay: Antifungal activity against Rhizoctonia solani AG-1 IA assessed as reduction of mycelial growth at 10 mg/l relative to control; format: functional; design: scale not given: the % may be the effect or the level left
[21] = Rhizoctonia solani, AG-1 IA, read-out: EC50

Row | Molecule | Activity (Rhizoctonia solani [1]) [mm] | EC90 (Rhizoctonia solani [2]; Rhizoctonia solani, AG-1 IA) [µg/mL] | EC50 (Rhizoctonia solani [2]; [21]) [µg/mL] | Activity (Rhizoctonia solani [3]) [mm] | Activity (Rhizoctonia solani [4]) [mm] | Activity (Rhizoctonia solani [5]) [mm] | further results
1 | COC(=O)Nc1nc2ccccc2[nH]1 [CARBENDAZIM] | 0 | 8.41 (≈ 44 µM) | 0.17 (≈ 0.889 µM) | 0 | 1.5 | 39 | –
2 | TRIPHENYLSTANNANOL [listing 1 of 2 here] | – | – | – | – | – | – | EC50 (Rhizoctonia solani [2]): 0.112 µg/mL
3 | Clc1ccc(C2(Cn3cncn3)CC(Br)CO2)c(Cl)c1 (configuration not stated) [BROMUCONAZOLE] | 3.6 | 4.81 (≈ 12.8 µM) | 0.097 (≈ 0.257 µM) | 0.7 | 8.2 | 17.9 | –
4 | CC12CC1(C)C(=O)N(c1cc(Cl)cc(Cl)c1)C2=O (configuration not stated) [PROCYMIDONE] | 1.2 | – | – | 0.6 | 17.6 | 37.2 | –
5 | TRIPHENYLSTANNANOL [listing 2 of 2 here] | 6.4 | – | – | 1 | 10.6 | 14.1 | EC90 (Rhizoctonia solani [2]): 5.55 µg/mL
6 | COC(=O)N(OC)c1ccccc1COc1ccn(-c2ccc(Cl)cc2)n1 [PYRACLOSTROBIN] | 5.4 | 4.67 (≈ 12.1 µM) | 0.094 (≈ 0.242 µM) | 0 | 8.1 | 17.8 | Activity (Rhizoctonia solani [6]): Active; Activity (Rhizoctonia solani [7]): Active
7 | CO/N=C(/C(=O)OC)c1ccccc1COc1ccccc1C [KRESOXIM-METHYL] | 25.1 | 490 (≈ 1560 µM) | 9.9 (≈ 31.6 µM) | 22 | 26.9 | 26 | –
8 | c1ccc2[nH]c(-c3cscn3)nc2c1 [THIABENDAZOLE] | 0 | 10.9 (≈ 54.2 µM) | 0.22 (≈ 1.09 µM) | 0 | 7.3 | 36.1 | –
9 | CC(C)(C)C(O)(CCc1ccc(Cl)cc1)Cn1cncn1 (configuration not stated) [TEBUCONAZOLE] | 3.3 | 2.42 (≈ 7.85 µM) | 0.049 (≈ 0.159 µM) | 0 | 7.6 | 13.5 | Activity (Glycine max [8]): Toxic; Activity (Glycine max [9]): Toxic
10 | N#Cc1c(Cl)c(Cl)c(Cl)c(C#N)c1Cl [CHLOROTHALONIL] | 7.6 | 49.4 (≈ 186 µM) | 0.998 (≈ 3.75 µM) | 4.7 | 19.3 | 30 | –
11 | CC1COC(Cn2cncn2)(c2ccc(Oc3ccc(Cl)cc3)cc2Cl)O1 (configuration not stated) [DIFENOCONAZOLE] | 2.7 | 1.13 (≈ 2.78 µM) | 0.023 (≈ 0.0566 µM) | 1.5 | 5 | 6.6 | –
12 | N#Cc1c[nH]cc1-c1cccc2c1OC(F)(F)O2 [FLUDIOXONIL] | 0 | 0.161 (≈ 0.649 µM) | 0.003 (≈ 0.0121 µM) | 0 | 0 | 7.1 | –
13 | O=C(O)c1ccccc1O [SALICYLIC ACID] | – | – | – | – | – | – | Activity (Rhizoctonia solani [10]): 40 mm; inhibition (Rhizoctonia solani [11]): inactive; Activity (Rhizoctonia solani [12]): 40 mm
14 | CO/C=C(/C(=O)OC)c1ccccc1Oc1cc(Oc2ccccc2C#N)ncn1 [AZOXYSTROBIN] | 13.1 | 33.1 (≈ 82 µM) | 0.668 (≈ 1.66 µM) | 10.3 | 16 | 15.2 | Activity (Rhizoctonia solani [13]): Active; Activity (Rhizoctonia solani [14]): Active
15 | CCCCNC(=O)n1c(NC(=O)OC)nc2ccccc21 [BENOMYL] | 0 | 17.4 (≈ 60 µM) | 0.352 (≈ 1.21 µM) | 0 | 9.6 | 38.8 | –
16 | O=[N+]([O-])c1cc(C(F)(F)F)c(Cl)c([N+](=O)[O-])c1Nc1ncc(C(F)(F)F)cc1Cl [FLUAZINAM] | 4.3 | 2.27 (≈ 4.89 µM) | 0.046 (≈ 0.0989 µM) | 3.4 | 5.1 | 9.1 | Activity (Rhizoctonia solani [15]): Active
17 | CC(C)NC(=O)N1CC(=O)N(c2cc(Cl)cc(Cl)c2)C1=O [IPRODIONE] | 0 | 11.8 (≈ 35.6 µM) | 0.237 (≈ 0.718 µM) | 0 | 5.5 | 39 | –
18 | COC(=O)NC(=S)Nc1ccccc1NC(=S)NC(=O)OC [THIOPHANATE METHYL] | 20.8 | 537 (≈ 1570 µM) | 10.8 (≈ 31.7 µM) | 0.4 | 36.7 | 39.6 | –
19 | CSC(=O)c1cccc2nnsc12 [ACIBENZOLAR-S-METHYL] | – | – | – | – | – | – | Activity (Rhizoctonia solani [10]): 40 mm; inhibition (Rhizoctonia solani [11]): inactive; Activity (Glycine max [16]): 28.5%; Activity (Rhizoctonia solani [12]): 40 mm; Activity (Rhizoctonia solani [17]): 55.2%; Activity (Glycine max [18]): Active; Activity (Glycine max [19]): 36%; Activity (Rhizoctonia solani [20]): 19%
